Experimental findings from BindingDB's records for doi:10.1021/jm00001a010 (University of Massachusetts Medical School, 1995) are described below.

The experiment addresses Thymidine kinase (Herpes simplex virus type 1). As to the kind of experiment: Binding affinity towards HSV-1 thymidine kinase was determined.

`Nc1nc2c(ncn2CCCCO)c(=O)[nH]1` [2-amino-9-(4-hydroxybutyl)-6,9-dihydro-3H-purin-6-one] yielded a Ki of 2.06 µM.

For orientation: Ki means the dissociation constant of the complex between target and ligand, obtained from inhibition or displacement.
